Columns and labels:
[1] = test system: Lactobacillus acidophilus (NCFM, ATCC 700396); assay: Bacterial growth on sialylated glycans; type: cell-based; conditions: L. acidophilus; substrate 10 g/L in MRS-medium; average of 3 replicates
[2] = test system: Bifidobacterium longum (BI-05, DGCC 9917); assay: Bacterial growth on sialylated glycans; type: cell-based; conditions: B. longum 9917; substrate 10 g/L in MRS-medium; average of 3 replicates
[3] = test system: Bifidobacterium longum infantis (DGCC 233); assay: Bacterial growth on sialylated glycans; type: cell-based; conditions: B. infantis 233; for Area under the growth curve: substrate 10 g/L in MRS-medium, average of 3 replicates
[4] = test system: Bifidobacterium longum longum (DGCC 232); assay: Bacterial growth on sialylated glycans; type: cell-based; conditions: B. longum 232; for Area under the growth curve: substrate 10 g/L in MRS-medium, average of 3 replicates
[5] = test system: Bifidobacterium longum infantis (DGCC 2238); assay: Bacterial growth on sialylated glycans; type: cell-based; conditions: B. infantis 2238; substrate 10 g/L in MRS-medium; average of 3 replicates
[6] = test system: group of probiotic strains; assay: Bacterial growth on sialylated glycans, probiotic strains as a group; type: cell-based
[7] = test system: Bifidobacterium longum infantis (DGCC 1497); assay: Bacterial growth on sialylated glycans; type: cell-based; conditions: B. infantis 1497; for Area under the growth curve: substrate 10 g/L in MRS-medium, average of 3 replicates
[8] = test system: Clostridium perfringens (ATCC 13124); type: cell-based; conditions: C. perfringens; substrate 10 g/L in MRS-medium; average of 3 replicates
[9] = test system: Bifidobacterium lactis (HN019, DGCC2013); assay: Bacterial growth on sialylated glycans; type: cell-based; conditions: B. lactis; substrate 10 g/L in MRS-medium; average of 3 replicates
[10] = Trans-sialidase activity assay (fluorescence-based); type: biochemical; conditions: for trans-sialidase activity relative to Tr6 parent (product formation, FIG. 4): mutants from shake flask cultures, cGMP donor, MU-Gal acceptor
Experimental: The invention provides a method for assaying the mutant trans-sialidase of the invention, that may for example be obtained by recombinant expression. Example 2.1 describes a fluorescence-based assay employing cGMP-bound sialic acid (for example 1 mM) as donor substrate and methylumbelliferyl-β-D-galactopyranoside (MU-Gal) as the acceptor (for example 0.5 mM), where the reaction is performed in a 50 mM phosphate-citrate (pH 6) at 30° C.
Trans-sialidase activity was assayed as described previously but with the following modifications. Reactions were performed in 50 mM phosphate-citrate (pH 6) at 30° C. using 2.9 μg/mL enzyme. The assay employed 1 mM cGMP-bound sialic acid as donor substrate and MU-Gal as the acceptor. MU-Gal at 0.5 mM was the highest final concentration to be tested due to its low solubility in aqueous solution. A solution of 87 mM MU-Gal in DMSO was diluted to 2 mM in 50 mM phosphate-citrate buffer (pH 6) immediately before preparing the reactions. When assaying crude enzyme preparations from P. pastoris, a background signal was observed, and attributed to cleavage of MU-Gal by endogenous β-galactosidase. This background signal could be removed by washing the column eight times with 440 μL of 5 mM HCl after sample application without desorption of the sialylated product and this was therefore done routinely.
To assess the performance of the mutant enzymes, they were produced by recombinant expression in P. pastoris, transformed with the respective mutant gene, by growth in shake flask cultures. The trans-sialidase activity of the expressed mutant enzymes was measured with a fluorescence-based assay using cGMP as sialic acid donor and methylumbelliferyl-β-D-galactopyranoside (MU-Gal) as acceptor (FIG. 4). As the detected product is a measure of both the trans-sialidase activity (product formation) and hydrolase activity (product degradation) the assay provides an effective screen for mutants having a higher trans-sialidase to hydrolase activity ratio.

[11] = Sialidase (hydrolase) activity assay; type: biochemical; conditions: substrate pNP-Neu5Ac; compared with Tr6
Experimental: Sialidase activity was measured in a reaction containing 50 mM phosphate-citrate buffer (pH 7), 0.75 mM pNP-NeuAc and 3 μg/mL sialidase enzyme. Reactions were initiated by addition of substrate and followed spectrophotometrically at 410 nm at 30° C. pH 7 was chosen to enable detection of released pNP in a continuous assay. Reaction rates were normalized as % of the activity of the Tr6 parent enzyme. For measurement of hydrolysis of natural substrates, the assay was performed with either 1 mM 3′-sialyllactose, 1 mM 6′-sialyllactose or 1 mM cGMP-bound sialic acid in 50 mM phosphate-citrate buffer (pH 5) using 1 μg/mL enzyme. Reactions were started by addition of enzyme and stopped by adding H2SO4 to 45 mM final concentration. Quantification of free sialic acid was performed using a 2-thiobarbituric acid assay with the modification that butanol extraction was substituted with mixing with dimethyl sulfoxide (DMSO).

| Molecule | Area under the growth curve [1] [OD600 × min] | Area under the growth curve [2] [OD600 × min] | Area under the growth curve [3] [OD600 × min] | Area under the growth curve [4] [OD600 × min] | Area under the growth curve [5] [OD600 × min] | growth promotion (in words) [6] | growth promotion (in words) [7] | Area under the growth curve [7] [OD600 × min] | Area under the growth curve [8] [OD600 × min] | growth promotion (in words) [3] | growth promotion (in words) [4] | Area under the growth curve [9] [OD600 × min] | trans-sialidase activity relative to Tr6 parent (product formation, FIG. 4) [10] | hydrolase activity (FIG. 5A) [11] | trans-sialylated product yield (maximum product formation, FIG. 5B) ([10]; purified enzyme from 5 L fermentor, time course, compared with Tr6) |
| --- | --- | --- | --- | --- | --- | --- | --- | --- | --- | --- | --- | --- | --- | --- | --- |
| CC(=O)NC1C(O)CC(OC2C(O)C(CO)OC(OCC3OC(O)C(O)C(O)C3O)C2O)(C(=O)O)OC1C(O)C(O)CO (stereo not drawn) [S-melibiose, SA-α-Gal-1,6-α-Glc] | 192 ± 4 | 70 ± 8 | 14 ± 6 | 104 ± 17 | 302 ± 2 | did not appear to promote growth |  |  |  |  |  |  |  |  |  |
| SA-α-Fuc [S-fucose] | 188 ± 18 | 114 ± 15 | 71 ± 6 | 192 ± 20 | 285 ± 15 |  | promoted growth | 149 ± 2 | 811 ± 48 | promoted growth | promoted growth | 192 ± 27 |  |  |  |
| SA-α-Gal-1,4-β-Fru [S-lactulose] | 128 ± 2 | 34 ± 14 | 109 ± 20 | 134 ± 19 | 269 ± 20 |  |  | 34 ± 2 | 541 ± 17 |  |  | 122 ± 18 |  |  |  |
| SA-α-Glc-1,4-α-Glc [S-maltose] | 193 ± 12 | 101 ± 6 | 30 ± 4 | 122 ± 31 | 158 ± 24 | did not appear to promote growth |  |  | 844 ± 99 |  |  | 102 ± 8 |  |  |  |
| Tr6 P98A: Tr6 mutant, reversion of mutation P98A (protein) LAPGSSRVELFKRKNSTVPFEESNGTIRERVVHSFRLPTIVNVDGVMVAIADARYETSFDNSFIETAVKYSVDDGATWNTQIAIKNSRASSVSRVVDATVIVKGNKLYILVGSFNKTRNYWTQHRDGSDWEPLLVVGEVTKSAANGKTTATISWGKPVSLKPLFPAEFDGILTKEFVGGVGAAIVASNGNLVYPVQIADMGGRVFTKIMYSEDDGNTWKFAEGRSKFGCSEPAVLEWEGKLIINNRVDYNRRLVYESSDMGKTWVEALGTLSHVWTNSPTSNQPDCQSSFVAVTIEGKRVMLFTHPLNLKGRWMRDRLHLWMTDNQRIFDVGQISIGDENSGYSSVLYKDDKLYSLHEINTNDVYSLVFVRLIGELQLMKSVVRTWKEEDNHLASICTPVVPATPPSKGACGAAVPTAGLVGFLSHSANGSVWEDVYRCVDANVANAERVPNGLKFNGVGGGAVWPVARQGQTRRYQFANYRFTLVATVTIDELPKGTSPLLGAGLEGPGDAKLLGLSYDKNRQWRPLYGAAPASPTGSWELHKKYHVVLTMADRQGSVYVDGQPLAGSGNTVVRGATLPDISHFYIGGPRSKGAPTDSRVTVTNVVLYNRRLNSSEIRTLFLSQDMIGTDGGAGTAA |  |  |  |  |  |  |  |  |  |  |  |  | reduction in trans-sialidase activity |  |  |
| Tr6 Y249G: Tr6 mutant, reversion of mutation Y249G (protein) LAPGSSRVELFKRKNSTVPFEESNGTIRERVVHSFRLPTIVNVDGVMVAIADARYETSFDNSFIETAVKYSVDDGATWNTQIAIKNSRASSVSRVVDPTVIVKGNKLYILVGSFNKTRNYWTQHRDGSDWEPLLVVGEVTKSAANGKTTATISWGKPVSLKPLFPAEFDGILTKEFVGGVGAAIVASNGNLVYPVQIADMGGRVFTKIMYSEDDGNTWKFAEGRSKFGCSEPAVLEWEGKLIINNRVDGNRRLVYESSDMGKTWVEALGTLSHVWTNSPTSNQPDCQSSFVAVTIEGKRVMLFTHPLNLKGRWMRDRLHLWMTDNQRIFDVGQISIGDENSGYSSVLYKDDKLYSLHEINTNDVYSLVFVRLIGELQLMKSVVRTWKEEDNHLASICTPVVPATPPSKGACGAAVPTAGLVGFLSHSANGSVWEDVYRCVDANVANAERVPNGLKFNGVGGGAVWPVARQGQTRRYQFANYRFTLVATVTIDELPKGTSPLLGAGLEGPGDAKLLGLSYDKNRQWRPLYGAAPASPTGSWELHKKYHVVLTMADRQGSVYVDGQPLAGSGNTVVRGATLPDISHFYIGGPRSKGAPTDSRVTVTNVVLYNRRLNSSEIRTLFLSQDMIGTDGGAGTAA |  |  |  |  |  |  |  |  |  |  |  |  | reduction in trans-sialidase activity |  |  |
| Tr6 D363E: Tr6 sialidase mutant with amino acid change D363E (protein) LAPGSSRVELFKRKNSTVPFEESNGTIRERVVHSFRLPTIVNVDGVMVAIADARYETSFDNSFIETAVKYSVDDGATWNTQIAIKNSRASSVSRVVDPTVIVKGNKLYILVGSFNKTRNYWTQHRDGSDWEPLLVVGEVTKSAANGKTTATISWGKPVSLKPLFPAEFDGILTKEFVGGVGAAIVASNGNLVYPVQIADMGGRVFTKIMYSEDDGNTWKFAEGRSKFGCSEPAVLEWEGKLIINNRVDYNRRLVYESSDMGKTWVEALGTLSHVWTNSPTSNQPDCQSSFVAVTIEGKRVMLFTHPLNLKGRWMRDRLHLWMTDNQRIFDVGQISIGDENSGYSSVLYKDDKLYSLHEINTNEVYSLVFVRLIGELQLMKSVVRTWKEEDNHLASICTPVVPATPPSKGACGAAVPTAGLVGFLSHSANGSVWEDVYRCVDANVANAERVPNGLKFNGVGGGAVWPVARQGQTRRYQFANYRFTLVATVTIDELPKGTSPLLGAGLEGPGDAKLLGLSYDKNRQWRPLYGAAPASPTGSWELHKKYHVVLTMADRQGSVYVDGQPLAGSGNTVVRGATLPDISHFYIGGPRSKGAPTDSRVTVTNVVLYNRRLNSSEIRTLFLSQDMIGTDGGAGTAA |  |  |  |  |  |  |  |  |  |  |  |  | enhanced trans-sialidase activity | reduced hydrolase activity | similarly low product formation profile as Tr6 |

Reference: patent US10533164B2, “Mutant sialidase having trans-sialidase activity for use in production of sialylated glycans” (priority 2013, dated 2020)
